# In patent publication US20260132128A1, “COMPOUND FOR RECOVERING P53 MUTATION FUNCTION AND USE THEREOF” (SHENZHEN ZHONGGE BIOLOGICAL TECHNOLOGY CO., LTD., priority 2022, published 2026):
# Marks after values point to notes of the source that are not given here.
# Key:
# NUGC-3 cells = experiment: NUGC-3 cell proliferation assay (CTG); format: cell-based, human; conditions: multiple ratio of GI50 of the compound to the reference compound
# Outline: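 GI50 derived by variable-slope regression of percent inhibition (normalized to blank and 0.1% DMSO controls) from CTG luminescence. Compound was given as 10 threefold dilutions, highest final 10 μM, to overnight-seeded NUGC-3 cells (250/well) for 6 days, 37° C, 5% CO2.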
# p53 Y220C = target: T1, p53 Y220C (Homo sapiens, UniProt P04637, Y220C); experiment: DNA binding test (HTRF): binding of P53Y220C protein to DNA; format: biochemical; conditions: multiple ratio of EC50 of the compound to the reference compound, DNA binding test
# T1 construct: a truncated mutant containing only amino acids 94-312 of p53; made in house; host or cells: E. coli
# Caco-2 cells = experiment: Caco-2 cell permeability test; format: in vitro ADME; conditions: Caco-2, 10 μM, 120 min
# Description: Caco-2 cells (ATCC, Cat. No. HTB-37) were inoculated to a 96-well plate (Corning HTS Transwell, Cat. No. 3391) at 1.25×10^5/cm2, and the culture medium (DMEM+10% FBS+1% Penicillin-Streptomycin Liquid (100×)+1% NEAA) was replaced every 3 to 4 days. The plate was placed in an incubator at 37° C. with 5% CO2 until a confluent cell monolayer was formed after 21 to 28 days. Before the transport experiment, the culture medium was removed from the cell culture plate, and the plate was washed twice with pre-warmed HBSS buffer (10 mM HEPES, pH 7.4), and 100 μL of HBSS buffer was added to each well. After incubation at 37° C. for 30 minutes, the TEER value was measured using a cell resistance meter (Millicell-ERS2) to confirm the integrity and density of the monolayer cells. The HBSS buffer was discarded, the upper plate containing the cell monolayer membrane was transferred to the corresponding receiving plate, 10 mM test compound stock solution was diluted to a concentration of 10 μM with HBSS transport buffer containing 0.5% BSA, and it was added to the apical side (A side) and basolateral side (B side), respectively. Incubation was carried out for 120 min at 37° C., 5% CO2, and 95% relative humidity, and the permeation of the test compound from A side to B side or from B side to A side and the efflux rate of the compound were determined. The test compound and the reference compound were quantified by LC-MS/MS analysis based on the peak area ratio of analyte/internal standard. The apparent permeability coefficient Papp (cm/s) was calculated using the following formula:
# [formula] • wherein, dCr/dt represented the functional relation between cumulative concentration of compound in receptor compartment and time; V represented the volume of solution in receptor compartment (0.1 mL at apical side, and 0.25 mL at basolateral side); A represented the transport surface area, i.e., the monolayer cell area was 0.0804 cm^2; CO represented the initial concentration of compound in donor compartment.
# The efflux ratio was calculated using the following formula: […]
# The percent recovery was calculated using the following formula:
# [formula] [formula] • wherein, Vd represented the volume of donor compartment (0.1 mL on the apical side and 0.25 mL on the basolateral side); C and Cr represented the final concentrations of the transported compound in the donor and receptor compartment, respectively; Cc represented the compound concentration in cell lysate; Vc represented the volume of insert well (which was 0.1 mL in this experiment).
structure (smiles),measurement,setting,value
COc1cc(S(C)(=O)=O)ccc1NCC#Cc1nc2c(NC3CC[C@@H](N4CC5(COC5)C4)C[C@@H]3F)cccn2c1CC(F)(F)F (some centres unmarked) [Compound 48],Compound GI50 (nM)/Reference compound GI50 (nM),NUGC-3 cells,B (B: GI50 of the reference compound < GI50 of the compound ≤ 3.0 * GI50 of the reference compound)
same,Compound EC50 (nM)/Reference compound EC50 (nM),p53 Y220C,B (B: EC50 of the reference compound<EC50 of the compound≤3.0*EC50 of the reference compound)
same,Efflux Ratio,Caco-2 cells,2.58
same,Papp A to B,Caco-2 cells; A to B,2.50 10^−6 cm/s
same,Papp B to A,Caco-2 cells; B to A,6.43 10^−6 cm/s
